Like-named read-outs stand apart in the source and are kept apart here.
Columns and labels:
Assay type in all cases: biochemical
[1] = molecular target: T1, Calpain I from human erythrocytes (Homo sapiens, UniProt P07384); assay: Calpain I inhibition, Suc-Leu-Tyr-AMC hydrolysis (KI); details: read-out: KI Cal I
T1 construct: Calpain I was purified from human erythrocytes; from tissue; host or cells: human erythrocytes
T1 sequence (P07384 1-714): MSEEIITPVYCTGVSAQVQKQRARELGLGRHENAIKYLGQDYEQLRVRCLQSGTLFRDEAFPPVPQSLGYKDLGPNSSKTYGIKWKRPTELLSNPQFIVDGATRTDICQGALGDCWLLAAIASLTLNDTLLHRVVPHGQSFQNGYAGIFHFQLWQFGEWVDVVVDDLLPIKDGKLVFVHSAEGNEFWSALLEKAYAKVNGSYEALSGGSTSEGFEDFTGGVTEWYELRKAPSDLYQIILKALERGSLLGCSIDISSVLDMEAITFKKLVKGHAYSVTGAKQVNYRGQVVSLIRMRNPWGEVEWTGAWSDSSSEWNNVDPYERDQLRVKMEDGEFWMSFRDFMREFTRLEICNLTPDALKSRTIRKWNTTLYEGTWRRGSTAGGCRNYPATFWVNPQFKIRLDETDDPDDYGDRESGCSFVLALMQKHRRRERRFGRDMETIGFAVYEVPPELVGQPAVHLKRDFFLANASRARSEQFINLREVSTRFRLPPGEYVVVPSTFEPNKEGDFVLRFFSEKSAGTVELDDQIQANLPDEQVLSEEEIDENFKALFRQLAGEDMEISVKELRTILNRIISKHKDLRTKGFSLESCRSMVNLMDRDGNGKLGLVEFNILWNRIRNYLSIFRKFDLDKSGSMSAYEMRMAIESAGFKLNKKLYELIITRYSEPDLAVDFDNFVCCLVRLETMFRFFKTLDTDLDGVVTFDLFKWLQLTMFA
T1 sequence (P04632 1-268 partner): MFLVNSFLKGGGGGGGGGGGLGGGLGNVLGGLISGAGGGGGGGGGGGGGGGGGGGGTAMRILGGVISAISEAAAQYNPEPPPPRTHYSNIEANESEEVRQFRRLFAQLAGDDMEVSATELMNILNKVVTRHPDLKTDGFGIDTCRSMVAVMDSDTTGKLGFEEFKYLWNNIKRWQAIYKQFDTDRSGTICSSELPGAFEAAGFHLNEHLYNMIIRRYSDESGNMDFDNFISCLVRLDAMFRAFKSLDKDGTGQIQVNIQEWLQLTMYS
Method: (§1) HEPES, heparin, and A23187 were obtained from Calbiochem. Suc-Leu-Tyr-AMC and chromogenic substrates were obtained from Sigma. Calpain I was purified from human erythrocytes according to the method of Kitahara (Kitahara et al., J. Biochem. 95, 1759-1766) omitting the Blue-Sepharose step. Calpain II from rabbit muscle and cathepsin B were purchased from Sigma. Papain was purchased from Calbiochem.
(§2) Peptide α-ketoamides were assayed as reversible enzyme inhibitors. Various concentrations of inhibitors in Me2 SO were added to the assay mixture which contained buffer and substrate. The reaction was started by the addition of the enzyme and the hydrolysis rates were followed spectrophotometrically or fluorimetrically.
(§3) Calpain I from human erythrocytes and calpain II from rabbit were assayed using Suc-Leu-Tyr-AMC Sasaki et al., J. Biol. Chem. 259, 12489-12494 (1984); incorporated herein by reference!, and the AMC (7-amino-4-methylcoumarin) release was followed fluorimetrically (excitation at 380 nm, and emmision at 460 nm). Calpains were assayed in 25 mM Tris pH=8.0, 10 mM CaC12. Fluorescence was followed using a Gilson FL-1A fluorometer or a Perkin-Elmer 203 Fluorescence spectrometer. Cathepsin B was assayed in 20 mM sodium acetate pH=5.2, 0.5 mM dithiothreitol using Bz-Phe-Val-Arg-p-nitroanilide as substrate. Alternately, cathepsin B was assayed with Z-Arg-Arg-AFC Barrett and Kirschke, Methods Enzymol. 80, 535-561 (1981); incorporated herein by reference!, and the AFC (7-amino-4-trifluoromethylcoumarin) release was followed fluorimetrically (excitation at 400 nm and emmision at 505 nm). Papain was assayed in 100 mM KPO4, 1 mM EDTA, 2.5 mM cysteine pH=6.0 using Bz-Arg-AMC or Bz-Arg-NA Kanaoka et al., Chem. Pharm. Bull. 25, 3126-3128 (1977); incorporated herein by reference! as a substrate. The AMC (7-amino-4-methylcoumarin) release was followed fluorimetrically (excitation at 380 nm, and emmision at 460 nm). Enzymatic hydrolysis rates were measured at various substrate and inhibitor concentrations, and KI values were determined by either Lineweaver-Burk plots or Dixon plots.
(§4) A 0.1M Hepes, 0.5M NaCl, pH 7.5 buffer was utilized for human leukocyte elastase (HLE), porcine pancreatic elastase (PPE), chymotrypsin and cathepsin G. A 0.1 Hepes, 0.01 M CaCl2, pH 7.5 buffer was utilized for trypsin, plasmin, and coagulation enzymes. A 50 mM Tris.HCl, 2 mM EDTA, 5 mM cysteine, pH 7.5 was used as a buffer for papain. A 88 mM KH2 PO4, 12 mM Na2 HPO4, 1.33 mM EDTA, 2.7 mM cysteine, pH 6.0 solution was used as a buffer for cathepsin B. A 20 mM Hepes, 10 mM CaCl2, 10 mM mercatoethanol, pH 7.2 buffer was utilized for calpain I and calpain II.

calpain II from rabbit = assay: Calpain II inhibition, Suc-Leu-Tyr-AMC hydrolysis (KI); details: read-out: KI Cal II
Method: as §1, §2, §3, §4

cathepsin B = molecular target: T2, cathepsin B (Homo sapiens, UniProt P07858); assay: Cathepsin B inhibition (KI); details: read-out: KI Cat B
T2 construct: purchased Sigma
Method: as §1, §2, §3, §4

| SMILES | Ki ([1]; Table 3, M1 CO-Leu--AA--CONH-R) [nM] | Ki (calpain II from rabbit; Table 3, M1 CO-Leu--AA--CONH-R) [nM] | Ki (cathepsin B; Table 3, M1 CO-Leu--AA--CONH-R) [nM] | Ki ([1]; Table 1, Z-Leu--AA--CONHR) [nM] | Ki (calpain II from rabbit; Table 1, Z-Leu--AA--CONHR) [nM] | Ki (cathepsin B; Table 1, Z-Leu--AA--CONHR) [nM] |
| --- | --- | --- | --- | --- | --- | --- |
| CC(C)CC(NC(=O)C(c1ccccc1)c1ccccc1)C(=O)NC(Cc1ccccc1)C(=O)C(=O)NCc1ccccn1 (stereo not drawn) [Ph2 CH-CO-Leu-Phe-CONH-CH2 -2-pyridyl, Ph2 CHCO-Leu-Phe-CONH--CH2 -2-Pyridyl] | 1100 | 360 | 2200 |  |  |  |
| CCC(NC(=O)C(CC(C)C)NC(=O)C(c1ccccc1)c1ccccc1)C(=O)C(=O)NCCCN1CCOCC1 (stereo not drawn) [Ph2 CHCO-Leu-Abu-CONH--N--(CH2)3 -Morpholinyl] | 800 | 110 | 2300 |  |  |  |
| CC(C)CC(NC(=O)C(c1ccccc1)c1ccccc1)C(=O)NC(Cc1ccccc1)C(=O)C(=O)NCCCN1CCOCC1 (stereo not drawn) [Ph2 CHCO-Leu-Phe-CONH--(CH2)3 -4-Morpholinyl] | 760 | 74 | 3800 |  |  |  |
| CCC(NC(=O)C(CC(C)C)NC(=O)OCc1ccccc1)C(=O)C(=O)NCCc1ccc(OC)cc1 (stereo not drawn) [Z-Leu-Abu-CONH-(CH2)2 C6 H4 (4-OCH3), Z-Leu-Abu-CONH--(CH2)2 C6 H4 (4-OCH3)] |  |  |  | 120 | 46 | 440 |
| CCC(NC(=O)C(CC(C)C)NC(=O)OCc1ccccc1)C(=O)C(=O)NCCCn1ccnc1 (stereo not drawn) [Z-Leu-Abu-CONH-(CH2)3 -1-imidazolyl, Z-Leu-Abu-CONH--(CH2)3 -1-Imidazolyl] |  |  |  | 290 | 68 | 9900 |
| CC[C@H](NC(=O)[C@H](CC(C)C)NC(=O)OCc1ccccc1)C(=O)C(=O)NCCCCCO [Z-Leu-Abu-CONH-(CH2)5 OH, Z-Leu-Abu-CONH--(CH2)5 OH] |  |  |  |  | 51 | 280 |
| CCC(NC(=O)[C@H](CC(C)C)NC(=O)OCc1ccccc1)C(=O)C(=O)NCCc1cccn1C (stereo partly drawn) [Z-Leu-Abu-CONH--(CH2)2-2-(N-Methylpyrrole)] |  |  |  |  | 76 | 1200 |
| CCC(NC(=O)C(CC(C)C)NC(=O)OCc1ccccc1)C(=O)C(=O)NCCCN1CCCC1=O (stereo not drawn) [Z-Leu-Abu-CONH--(CH2)3 -1-Pyrrolidinyl-2-one] |  |  |  | 1200 | 270 | 2000 |
| CCC(NC(=O)C(CC(C)C)NC(=O)OCc1ccccc1)C(=O)C(=O)NCC1(C)CC(O)CC(C)(C)C1 (stereo not drawn) [Z-Leu-Abu-CONH--CH2 --C6 H8 (1,3,3-(CH3)3 -5-OH)] |  |  |  | 420 | 69 | 890 |
| CCC(NC(=O)C(CC(C)C)NC(=O)OCc1ccccc1)C(=O)C(=O)NCc1nccc2ccccc12 (stereo not drawn) [Z-Leu-Abu-CONH-CH2 -1-isoquinolinyl, Z-Leu-Abu-CONH--CH2 -1-Isoquinolinyl] |  |  |  | 250 |  | 300 |
